Laboratory results: US10633388B2, “Pyrazolopyrimidone derivatives and methods of use thereof” (Shanghai Hengrui Pharmaceutical Co., Ltd., priority 2013, dated 2020)
Blank lines part the entries; values can stand above or below the molecule they belong to.

Assays:
[1] = target: monkey GnRHr (Macaca fascicularis, UniProt A0A2K5WH82); assay: Monkey GnRHr inhibitory activity assay, Fluo-4 calcium signal in stably transfected CHO cells; assay type: cell-based; conditions: GnRH polypeptide stimulation, read-out: IC50, inhibition of the activity of Monkey GnRHr
Procedure: This assay was used to determine the inhibition effect of the present compounds on the activity of monkey GnRHr protein expressed by monkey GnRHr/CHO stably transfected cell lines.
A mammalian expression vector containing the monkey GnRHr gene was transferred into CHO cells by adding Lipofectamine®LTX reagent containing Plus™. Antibiotics were added the next day for screening to pick out the monoclonal cell lines.
The monkey GnRHr/CHO stably transfected cell lines were inoculated in 96-well plates with an inoculation density of 25,000 cells/well. The culture medium was removed the next day, and loading buffer containing Fluo-4 dye was added to the plate ([…]) and incubated for 30 minutes at 37° C. The plate was moved to room temperature and equilibrated for 10 minutes. Each compound was diluted with DMSO to seven concentration gradients of 100 μM, 10 μM, 1 μM, 0.1 μM, 0.01 μM, 0.001 μM, 0.0001 μM. […] After automated addition of 50 μL of GnRH polypeptide stimulant solution, the value was immediately detected at 494/516 […] by a microplate reader (flexstation 3). IC50 values of the compounds were calculated by software from different fluorescence signals at various corresponding concentrations.
The inhibitory activity of the present compounds on monkey GnRHr was determined by the above assay, and IC50 values are shown in Table 1.

[2] = Rat pharmacokinetics assay; assay type: in vivo; conditions: both sexes, Sprague-Dawley, plasma, SD rats, oral 10 mg/kg vs i.v. 5 mg/kg, read-out: Oral Bioavailability F
Procedure: Sprague-Dawley (SD) rats were used as test animals. The plasma concentrations at various times were determined by LC/MS/MS after intragastric administration of compounds of Example 2, Example 3, Example 5, Example 9, Example 10, Example 11, and Example 13, and intravenous administration of the compound of Example 11 to the rats. The pharmacokinetic behavior of the present compounds in rats was studied, and the pharmacokinetic features were evaluated.
Thirty-two (32) healthy adult SD rats (half female and half male) were evenly designated into 8 groups (4 for each group). The animals were purchased from Shanghai Super B&K Laboratory Animal Corp. Ltd (laboratory animal production Certificate No. SCXK (HU)2008-0016).
An appropriate amount of sample was weighed, and added with 0.5% CMC-Na to form a 1 mg/ml suspension upon ultrasonic treatment.
Appropriate amounts of drugs were weighed, and dissolved with 0.5 ml DMSO and 0.5 ml of Tween 80. Saline solution was added to the final volume. […]
The content of the test compound in the plasma of rats after administration of the compound by oral gavage was determined by LC/MS/MS.

[3] = Rabbit pharmacokinetics assay; assay type: in vivo, New Zealand rabbits; conditions: rabbits
Procedure: (§1) Rabbits were used as test animals. The plasma concentrations at various times were determined by LC/MS/MS after intragastric administration of the compound of Example 11, and intravenous administration of the compound of Example 11 to rabbits. The pharmacokinetic behavior of the present compound in rabbits was studied, and the pharmacokinetic features were evaluated.
Six (6) healthy New Zealand Rabbits (female) were evenly designated into 2 groups. The animals were purchased from Jie Sijie Corp. Ltd.
An appropriate amount of sample was weighed, and added with 0.5% CMC-Na to form […] suspension upon ultrasonic treatment.
Appropriate amounts of drugs were weighed, and dissolved with 1 ml DMSO and 1 ml of Tween 80. Saline solution was added to the final volume. […]
0.2 ml of blood was sampled before and 5 minutes, 0.25, 0.5, 1, 2, 4, 8, 11, 24 hours after intravenous administration, collected in a heparinized test tube, and centrifuged at 3500 rpm for 10 minutes to separate the plasma, which was stored at −20° C. […] The content of the test compound in the plasma of rabbits after administration of the compound by oral gavage and intravenous injection was determined by LC/MS/MS.

[4] = Beagle pharmacokinetics assay; assay type: in vivo; conditions: beagles
Procedure: as §1, with “Beagles” for “Rabbits”, “beagles.” for “rabbits.”, “beagles” for “rabbits”
Eight (8) healthy beagles (half female and half male) were evenly designated into 2 groups. The animals were purchased from SuzhouXishan Zhongke Laboratory Animal Corp. Ltd.
An appropriate amount of sample was weighed, and added with 0.5% CMC-Na to form a 1.0 mg/ml suspension upon ultrasonic treatment;
Appropriate amounts of drugs were weighed, and dissolved with 5 ml DMSO and 5 ml of Tween 80. Saline solution was added to the final volume. […]
1.0 ml of blood was sampled from the foreleg vein before, and 0.25, 0.5, 1, 2, 4, 6, 8, 12, and 24 hours after oral administration, collected in a heparinized test tube, and centrifuged at 3500 rpm for 10 minutes to separate the plasma, which was stored at −20° C. […] The content of the test compound in the plasma of beagles after administration of the compound by oral gavage and intravenous injection was determined by LC/MS/MS.

[5] = system: ectopic endometrium; assay: In vivo pharmacodynamics test in rabbit endometriosis model; parameters: species or system New Zealand rabbits
Excerpt: Fifteen (15) healthy New Zealand rabbits (female) were evenly designated into 3 groups.
Rabbits were adaptive fed and quarantined for seven days, and subcutaneously injected with 30 g/kg of estradiol benzoate once daily for two days before surgery. When the model was established, rabbits were anesthetized with 3% sodium pentobarbital, and laparotomized sterilely. Then, one side of the uterus was separated and ligated with the uterine mesorectum vessel. Then, a section of the uterus was cut off and put into a warm saline dish, and then dissected longitudinally and the myometrium and endometrium were separated. A section of endometrium (about 0.5 cm by 0.5 cm) was seamed to the abdominal wall rich in blood vessels with the intimal surface facing toward the abdominal cavity. Three weeks after endometrium planting, the rabbits were laparotomized to check graft intimal size. […] Each group was administered by oral gavage once a day in a volume of 5 ml/kg, continuously for 28 days after successful modeling. Ultimately, the rabbit was weighed and the volume of ectopic endometrium was measured to evaluate the effect of the present compound on the endometrial activity.

[6] = Seven-day toxicokinetic evaluation in rats; assay type: in vivo, SD rats
Procedure: SD rats were used as test animals. The plasma concentration at various times was determined by LC/MS/MS after administration of the compound of Example 11 (SHR147280) by oral gavage for 7 days. The compound toxicity in rodents was preliminarily assessed according to the potential toxicity reaction and severity level of the body.
Twenty-four (24) healthy adult SD rats (half female and half male) were evenly designated into 4 groups (6 for each group). The animals were purchased from Shanghai SLAC Laboratory Animal Corp. Ltd (laboratory animal production Certificate No. SCXK (HU) 2012-0002).
An appropriate amount of sample was accurately weighed, and added with some 0.5% CMC-Na to form an uniform suspension upon ultrasonicator grinding treatment, and then diluted to the final volume. The test sample solutions on day 1 and day 7 were kept for the determination of administration concentration of toxicokinetics.
Repeat oral doses were 80, 240, and 720 mg/kg, and administration concentrations were 8, 24, and 72 mg/ml respectively. The dosing volume was 10 ml/kg once daily for 7 days.
The blood was sampled on day 1 and day 7 after administration with sampling time before, and 1, 2, 4, 8 and 24 hours after oral administration on day 1, as well as before, and 1, 2, 4, 8, 24 and 48 hours after oral administration on day 7. The blood sample was collected in a heparinized test tube, and centrifuged to separate the plasma, which was stored at −20° C. The content of the test compound in the plasma of rats after administration of the compound by oral gavage was determined by LC/MS/MS.

[7] = women with endometriosis, 150 or 250 mg qd, vs leuprorelin depot 3.75 mg sc monthly or placebo; cited from earlier work

Chain of monkey GnRHr (A0A2K5WH82 1-328): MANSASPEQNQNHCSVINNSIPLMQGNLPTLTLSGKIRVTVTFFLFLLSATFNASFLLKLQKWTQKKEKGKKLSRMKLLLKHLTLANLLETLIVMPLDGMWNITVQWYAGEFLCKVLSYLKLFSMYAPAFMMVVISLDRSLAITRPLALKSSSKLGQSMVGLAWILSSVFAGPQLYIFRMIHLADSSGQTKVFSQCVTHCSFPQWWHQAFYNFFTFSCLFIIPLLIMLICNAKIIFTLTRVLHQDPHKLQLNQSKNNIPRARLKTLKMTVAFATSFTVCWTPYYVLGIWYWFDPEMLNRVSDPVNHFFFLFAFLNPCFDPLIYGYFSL

IC50 [1]: 23.2 nM
SMILES: CNC(=O)Nc1ccc(-n2nc3c(c2CN(C)C)c(=O)n(-c2ccc(OC)nn2)c(=O)n3Cc2c(F)cccc2F)cc1 [Example 9, 1-(4-(7-(2,6-difluorobenzyl)-3-((dimethylamino)methyl)-5-(6-methoxypyridazin-3-yl)-4,6-dioxo-4,5,6,7-tetrahydro-2H-pyrazolo[3,4-d]pyrimidin-2-yl)phenyl)-3-methylurea]

SMILES: CONC(=O)Nc1ccc(-n2nc3c(c2CN(C)C)c(=O)n(-c2ccc(OC)nn2)c(=O)n3Cc2c(F)cccc2F)cc1 [Example 11, 1-(4-(7-(2,6-difluorobenzyl)-3-((dimethylamino)methyl)-5-(6-methoxypyridazin-3-yl)-4,6-dioxo-4,5,6,7-tetrahydro-2H-pyrazolo[3,4-d]pyrimidin-2-yl)phenyl)-3-methoxyurea]
IC50 [1]: 78.6 nM
bioavailability [2]: 76.6%
bioavailability ([3]; female, New Zealand, rabbit, plasma, oral 30 mg/kg vs intravenous injection 5 mg/kg, read-out: Oral Bioavailability F): 92.9%
Apparent volume of distribution Vz/F ([3]; oral 30 mg/kg): 10.719 ± 3.862 L/kg
Clearance rate CL/F ([4]; oral 5 mg/kg): 14.7 ± 4.2 mL/min/kg
bioavailability ([4]; both sexes, beagle, dog, plasma, oral 5 mg/kg vs i.v. 2 mg/kg, read-out: Oral Bioavailability F): 104%
inhibition for the ectopic endometrial volume ([5]; 10 mg/kg oral once daily for 4 weeks): not obvious
growth of ectopic endometrium ([5]; 30 mg/kg oral once daily for 4 weeks, vs 0.5% CMC-Na control): significantly inhibited
Death ([6]; both, SD, rat, in vivo, po, 720 mg/kg, 7 days): died on day 7 before dosing
lethal dose ([6]; both, SD, rat, in vivo, po, 7 days): 720 mg/kg
MRT0-∞ ([6]; female, SD, rat, in vivo, po, 240 mg/kg): 9.63 h
safety window: NOAEL dose ratio (toxicological pharmacokinetic dose/pharmacodynamic dose) ([6]; rat 240 mg/kg / rabbit 30 mg/kg, preliminary evaluation): 240/30 = 8
urine indexes ([6]; rat, in vivo): no regularly abnormal changes
Blood biochemistry: ALB (albumin) and ALP (alkaline phosphatase) ([6]; rat, in vivo, 720 mg/kg): significantly decreased
Blood biochemistry: ALT (alanine aminotransferase) ([6]; rat, in vivo, 720 mg/kg): no statistical differences
Blood biochemistry: BUN, CHOL, CREA, TBIL, TP and AST ([6]; rat, in vivo, 720 mg/kg): significantly increased
Hematology: WBC, Neut, Lymph, EO and RET ([6]; rat, in vivo, 720 mg/kg): significantly decreased
Relative organ coefficient of the thymus and spleen ([6]; rat, in vivo, 720 mg/kg): significantly reduced
absolute wet weight of the adrenal gland ([6]; rat, in vivo, 720 mg/kg): significantly increased
absolute wet weight of the thymus, heart, lung and spleen ([6]; rat, in vivo, 720 mg/kg): significantly decreased
food intake ([6]; rat, in vivo, 720 mg/kg): significantly reduced
relative organ coefficient of the brain, liver, lung, kidney, and adrenal gland ([6]; rat, in vivo, 720 mg/kg): significantly increased
potential toxic target organs ([6]; rat, in vivo, po): marrow hematopoietic system, thymus, heart, liver, lung, spleen, adrenal gland, ovary, and digestion system

SMILES: COc1cccc(-c2c(C)n(Cc3c(F)cccc3C(F)(F)F)c(=O)n(C[C@H](NCCCC(=O)O)c3ccccc3)c2=O)c1F [elagolix, Elagolix]
serum estrogen level [7]: lower than that of the leuprorelin treatment group and placebo group
